Results published in patent publication US20230338338A1, “PHARMACEUTICAL COMPOSITIONS COMPRISING IONIC LIQUIDS” (The Provost, Fellows, Foundation Scholars, and the other …, priority 2021, published 2023).

Columns and labels:
Type in all cases: physicochemical
[1] = Dissolution study, USP Apparatus 2, deionised water; conditions: 900 ml, 37° C., 50 rpm, equivalent of 200 mg ibuprofenate ion, after 10 minutes until the end of four hours
Experimental: (§1) Dissolution studies were performed using a USP Apparatus 2 with a Sotax AT7 dissolution bath (Carl Stuart Limited, Dublin, Ireland). The mass of powder corresponding to the equivalent of 200 mg of ibuprofenate ion (equivalent to one dose) was added to 900 ml of dissolution media equilibrated at 37° C. stirred at 50 rpm. Samples were taken and replaced with fresh media every 5 min for the first 30 min, then at 45 min, 60 min and then every 30 min for the remainder of the experiment. The first 2 ml of each 5 ml sample was filtered and discarded before the remaining sample was filtered through a 0.45 μm nylon filter into a HPLC vial. All experiments were carried out in triplicate. A sample of the powder was assayed by completely dissolving it in methanol (n=3) and finding the ionic liquid content by HPLC.
The dissolution of powders 1 and 5 to 8 in deionised water over a period of four hours was studied.
The dissolution of powders 9 and 10 in deionised water over a period of four hours was studied.
An ibuprofen amorphous solid dispersion was also tested. The amorphous solid dispersion was prepared by spray drying a solution of ibuprofen and hydroxypropyl methylcellulose in methanol in the same way as Powders 1 to 8. The ibuprofen content of the amorphous solid dispersion was the same as Powder 1.

[2] = Dissolution study, USP Apparatus 2, simulated intestinal fluid (SIF); conditions: 0.05M phosphate buffer (pH 6.8), 900 ml, 37° C., 50 rpm, equivalent of 200 mg ibuprofenate ion, after 10 minutes until the end of four hours
Experimental: as §1
The dissolution of powders 1 and 5 to 8 in simulated intestinal fluid (SIF), 0.05M phosphate buffer (pH 6.8) over a period of four hours was studied.
The dissolution of powders 9 and 10 in simulated intestinal fluid (SIF), 0.05M phosphate buffer (pH 6.8) over a period of four hours was studied.

[3] = Thermodynamic stability and miscibility of the ionic liquid in dissolution media (stirred 24 hours at 37° C., then monitored for two years); conditions: for miscibility with dissolution medium: 2 to 85% w/w; for thermodynamic stability (crystallisation or liquid-liquid phase separation): 2 to 85% w/w BMIm Ibu:dissolution medium, stirred 24 hours at 37° C., then ambient conditions over two years
Experimental: The thermodynamic stability of BMIm Ibu (ionic liquid) in deionised water (DIW) and simulated intestinal fluid (SIF; 0.05 M phosphate buffer, pH 6.8) was quantified as follows: Ratios of 2 to 85% w/w BMIm Ibu:dissolution medium were placed in small vials and allowed to stir for 24 hours at 37° C.

[4] = simulated intestinal fluid (SIF; 0.05 M phosphate buffer, pH 6.8)

Row | SMILES | level of dissolution [1] [%] | level of dissolution [2] [%] | miscibility with dissolution medium ([3]; deionised water (DIW)) | thermodynamic stability (crystallisation or liquid-liquid phase separation) ([3]; deionised water (DIW)) | miscibility with dissolution medium [3, 4] | thermodynamic stability (crystallisation or liquid-liquid phase separation) [3, 4]
1 | CC(C)Cc1ccc(C(C)C(=O)O)cc1 (stereo not drawn) [crystalline ibuprofen, ibuprofen] | ≤ 30 | 100 |  |  |  | 
2 | CC(C)Cc1ccc(C(C)C(=O)[O-])cc1.CCCCn1cc[n+](C)c1 (stereo not drawn) [BMIm Ibu, 1-butyl-3-methyl imidazolium ibuprofenate] |  |  | fully miscible | No crystallisation or phase separation was observed | fully miscible | No crystallisation or phase separation was observed
